Experimental data published in patent US20260062412A1, “NITROGEN-CONTAINING HETEROCYCLIC COMPOUND HAVING MYT1 INHIBITORY ACTIVITY” (CHUGAI SEIYAKU KABUSHIKI KAISHA, priority 2023, published 2026).

These molecules were tested against MYT1 protein (Homo sapiens (Human), UniProt Q99640) (assay: Test for binding to ATP binding site of MYT1 (Kinase Tracer 178 / Eu-Anti-GST antibody TR-FRET)). Conditions: ATP binding site of MYT1, 30 minutes at room temperature.
Sequence of MYT1 protein (Q99640 whole entry): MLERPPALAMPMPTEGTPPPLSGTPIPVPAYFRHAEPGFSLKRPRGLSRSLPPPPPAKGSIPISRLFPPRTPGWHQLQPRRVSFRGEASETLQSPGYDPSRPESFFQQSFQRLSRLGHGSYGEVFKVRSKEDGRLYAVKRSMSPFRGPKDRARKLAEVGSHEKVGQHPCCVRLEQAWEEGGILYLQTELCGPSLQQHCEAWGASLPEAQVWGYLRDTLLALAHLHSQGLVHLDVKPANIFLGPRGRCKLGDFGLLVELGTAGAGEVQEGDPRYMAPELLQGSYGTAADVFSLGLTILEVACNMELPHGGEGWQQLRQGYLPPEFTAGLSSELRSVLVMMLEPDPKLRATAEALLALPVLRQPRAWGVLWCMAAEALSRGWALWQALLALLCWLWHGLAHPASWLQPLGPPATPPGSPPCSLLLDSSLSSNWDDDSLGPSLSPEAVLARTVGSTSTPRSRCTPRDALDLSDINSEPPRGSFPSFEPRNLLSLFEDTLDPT

Point of comparison: `Nc1c(-c2ccc(F)c3[nH]ncc23)c2cc(OCC3(C(F)(F)F)CC3)c3ncccc3c2[nH]c1=O` [Compound C44, 3-Amino-4-(7-fluoro-1H-indazol-4-yl)-6-[[1-(trifluoromethyl)cyclopropyl]methoxy]-1H-1,7-one], IC50 5.1 nM. Against it:
- Nc1c(-c2ccc(F)c3[nH]ncc23)c2cc(OCC3CCC3)c3ncccc3c2[nH]c1=O [Compound C9, 3-Amino-6-(cyclobutylmethoxy)-4-(7-fluoro-1H-indazol-4-yl)-1H-1,7-phenanthrolin-2-one] — 1.6-fold lower, 3.2 nM
- CC(C)CCOc1cc2c(-c3ccc(F)c4[nH]ncc34)c(N)c(=O)[nH]c2c2cccnc12 [Compound C10, 3-Amino-4-(7-fluoro-1H-indazol-4-yl)-6-(3-methylbutoxy)-1H-1,7-phenanthrolin-2-one] — 2.2-fold lower, 2.3 nM
- Nc1c(-c2ccc(F)c3[nH]ncc23)c2cc(OCC3CC3)c3ncccc3c2[nH]c1=O [Compound C11, 3-Amino-6-(cyclopropylmethoxy)-4-(7-fluoro-1H-indazol-4-yl)-1H-1,7-phenanthrolin-2-one] — 3.6-fold lower, 1.4 nM
- Nc1c(-c2ccc(F)c3[nH]ncc23)c2cc(O[C@H]3CCOC3)c3ncccc3c2[nH]c1=O [Compound C12, 3-Amino-4-(7-fluoro-1H-indazol-4-yl)-6-[(3S)-oxolan-3-yl]oxy-1H-1,7-phenanthrolin-2-one] — 2.3-fold lower, 2.2 nM
- COCCOc1cc2c(-c3ccc(F)c4[nH]ncc34)c(N)c(=O)[nH]c2c2cccnc12 [Compound C14, 3-Amino-4-(7-fluoro-1H-indazol-4-yl)-6-(2-methoxyethoxy)-1H-1,7-phenanthrolin-2-one] — 2-fold lower, 2.5 nM
- Nc1c(-c2ccc(F)c3[nH]ncc23)c2cc(OCC(F)(F)F)c3ncccc3c2[nH]c1=O [Compound C15, 3-Amino-4-(7-fluoro-1H-indazol-4-yl)-6-(2,2,2-trifluoroethoxy)-1H-1,7-phenanthrolin-2-one] — 2-fold lower, 2.6 nM
- Nc1c(-c2ccc(F)c3[nH]ncc23)c2cc(OCC(F)F)c3ncccc3c2[nH]c1=O [Compound C16, 3-Amino-6-(2,2-difluoroethoxy)-4-(7-fluoro-1H-indazol-4-yl)-1H-1,7-phenanthrolin-2-one] — 4.6-fold lower, 1.1 nM
- Nc1c(-c2ccc(F)c3[nH]ncc23)c2cc(OC3CCCCC3)c3ncccc3c2[nH]c1=O [Compound C17, 3-Amino-6-cyclohexyloxy-4-(7-fluoro-1H-indazol-4-yl)-1H-1,7-phenanthrolin-2-one] — within 1.5-fold, 4.5 nM
- Nc1c(-c2ccc(F)c3[nH]ncc23)c2cc(OC3CCC3)c3ncccc3c2[nH]c1=O [Compound C18, 3-Amino-6-cyclobutyloxy-4-(7-fluoro-1H-indazol-4-yl)-1H-1,7-phenanthrolin-2-one] — 2.5-fold lower, 2 nM
- Nc1c(-c2ccc(F)c3[nH]ncc23)c2cc(OCCCF)c3ncccc3c2[nH]c1=O [Compound C19, 3-Amino-4-(7-fluoro-1H-indazol-4-yl)-6-(3-fluoropropoxy)-1H-1,7-phenanthrolin-2-one] — 2.3-fold lower, 2.2 nM
- CC(C)(O)CCOc1cc2c(-c3ccc(F)c4[nH]ncc34)c(N)c(=O)[nH]c2c2cccnc12 [Compound C20, 3-Amino-4-(7-fluoro-1H-indazol-4-yl)-6-(3-hydroxy-3-methylbutoxy)-1H-1,7-phenanthrolin-2-one] — within 1.5-fold, 3.6 nM
- Nc1c(-c2ccc(F)c3[nH]ncc23)c2cc(OC(F)F)c3ncccc3c2[nH]c1=O [Compound C21, 3-Amino-6-(difluoromethoxy)-4-(7-fluoro-1H-indazol-4-yl)-1H-1,7-phenanthrolin-2-one] — 1.8-fold lower, 2.8 nM
- C[C@H](Oc1cc2c(-c3ccc(F)c4[nH]ncc34)c(N)c(=O)[nH]c2c2cccnc12)C(F)(F)F [Compound C22, 3-Amino-4-(7-fluoro-1H-indazol-4-yl)-6-[(2S)-1,1,1-trifluoropropan-2-yl]oxy-1H-1,7-phenanthrolin-2-one] — 1.5-fold higher, 7.9 nM
- Nc1c(-c2ccc(F)c3[nH]ncc23)c2cc(OC3CC(F)(F)C3)c3ncccc3c2[nH]c1=O [Compound C23, 3-Amino-6-(3,3-difluorocyclobutyl)oxy-4-(7-fluoro-1H-indazol-4-yl)-1H-1,7-phenanthrolin-2-one] — within 1.5-fold, 5 nM
- CC(C)(O)COc1cc2c(-c3ccc(F)c4[nH]ncc34)c(N)c(=O)[nH]c2c2cccnc12 [Compound C24, 3-Amino-4-(7-fluoro-1H-indazol-4-yl)-6-(2-hydroxy-2-methylpropoxy)-1H-1,7-phenanthrolin-2-one] — within 1.5-fold, 6.5 nM
- CC(F)(F)COc1cc2c(-c3ccc(F)c4[nH]ncc34)c(N)c(=O)[nH]c2c2cccnc12 [Compound C25, 3-Amino-6-(2,2-difluoropropoxy)-4-(7-fluoro-1H-indazol-4-yl)-1H-1,7-phenanthrolin-2-one] — 1.8-fold lower, 2.8 nM
- COCC(F)(F)COc1cc2c(-c3ccc(F)c4[nH]ncc34)c(N)c(=O)[nH]c2c2cccnc12 [Compound C26, 3-Amino-6-(2,2-difluoro-3-methoxypropoxy)-4-(7-fluoro-1H-indazol-4-yl)-1H-1,7-phenanthrolin-2-one] — 2.2-fold lower, 2.3 nM
- C[C@@H](Oc1cc2c(-c3ccc(F)c4[nH]ncc34)c(N)c(=O)[nH]c2c2cccnc12)C(F)(F)F [Compound C27, 3-Amino-4-(7-fluoro-1H-indazol-4-yl)-6-[(2R)-1,1,1-trifluoropropan-2-yl]oxy-1H-1,7-phenanthrolin-2-one] — within 1.5-fold, 4.4 nM
- Nc1c(-c2ccc(F)c3[nH]ncc23)c2cc(O[C@H]3C[C@@H](F)C3)c3ncccc3c2[nH]c1=O [Compound C28, 3-Amino-4-(7-fluoro-1H-indazol-4-yl)-6-((1s,3s)-3-fluorocyclobutoxy)-1,7-phenanthrolin-2(1H)-one] — 2.8-fold lower, 1.8 nM
- CO[C@H]1C[C@@H](Oc2cc3c(-c4ccc(F)c5[nH]ncc45)c(N)c(=O)[nH]c3c3cccnc23)C1 [Compound C29, 3-Amino-4-(7-fluoro-1H-indazol-4-yl)-6-((1s,3s)-3-methoxycyclobutoxy)-1,7-phenanthrolin-2(1H)-one] — 1.5-fold lower, 3.3 nM
- CO[C@H]1C[C@H](Oc2cc3c(-c4ccc(F)c5[nH]ncc45)c(N)c(=O)[nH]c3c3cccnc23)C1 [Compound C30, 3-Amino-4-(7-fluoro-1H-indazol-4-yl)-6-((1r,3r)-3-methoxycyclobutoxy)-1,7-phenanthrolin-2(1H)-one] — within 1.5-fold, 5.8 nM
- N#C[C@H]1C[C@H](Oc2cc3c(-c4ccc(F)c5[nH]ncc45)c(N)c(=O)[nH]c3c3cccnc23)C1 [Compound C31, (1r,3r)-3-[[3-Amino-4-(7-fluoro-1H-indazol-4-yl)-2-oxo-1H-1,7-phenanthrolin-6-yl]oxy]cyclobutane-1-carbonitrile] — within 1.5-fold, 4.3 nM
- Nc1c(-c2ccc(F)c3[nH]ncc23)c2cc(OCCC(F)F)c3ncccc3c2[nH]c1=O [Compound C32, 3-Amino-6-(3,3-difluoropropoxy)-4-(7-fluoro-1H-indazol-4-yl)-1H-1,7-phenanthrolin-2-one] — within 1.5-fold, 3.5 nM
- N#C[C@H]1C[C@@H](Oc2cc3c(-c4ccc(F)c5[nH]ncc45)c(N)c(=O)[nH]c3c3cccnc23)C1 [Compound C33, (1s,3s)-3-[[3-Amino-4-(7-fluoro-1H-indazol-4-yl)-2-oxo-1H-1,7-phenanthrolin-6-yl]oxy]cyclobutane-1-carbonitrile] — within 1.5-fold, 3.5 nM
- CC[C@H](C)Oc1cc2c(-c3ccc(F)c4[nH]ncc34)c(N)c(=O)[nH]c2c2cccnc12 [Compound C34, 3-Amino-6-[(2S)-butan-2-yl]oxy-4-(7-fluoro-1H-indazol-4-yl)-1H-1,7-phenanthrolin-2-one] — within 1.5-fold, 3.7 nM
- Nc1c(-c2ccc(F)c3[nH]ncc23)c2cc(OC[C@H]3CCCO3)c3ncccc3c2[nH]c1=O [Compound C35, 3-Amino-4-(7-fluoro-1H-indazol-4-yl)-6-[[(2R)-oxolan-2-yl]methoxy]-1H-1,7-phenanthrolin-2-one] — within 1.5-fold, 4.4 nM
- Nc1c(-c2ccc(F)c3[nH]ncc23)c2cc(OC[C@@H]3CCCO3)c3ncccc3c2[nH]c1=O [Compound C37, 3-Amino-4-(7-fluoro-1H-indazol-4-yl)-6-[[(2S)-oxolan-2-yl]methoxy]-1H-1,7-phenanthrolin-2-one] — within 1.5-fold, 3.9 nM
- Nc1c(-c2ccc(F)c3[nH]ncc23)c2cc(OCC3(F)CC3)c3ncccc3c2[nH]c1=O [Compound C38, 3-Amino-6-[(1-fluorocyclopropyl)methoxy]-4-(7-fluoro-1H-indazol-4-yl)-1H-1,7-phenanthrolin-2-one] — within 1.5-fold, 5.7 nM
- Nc1c(-c2ccc(F)c3[nH]ncc23)c2cc(OCC3CC(F)(F)C3)c3ncccc3c2[nH]c1=O [Compound C39, 3-Amino-6-[(3,3-difluorocyclobutyl)methoxy]-4-(7-fluoro-1H-indazol-4-yl)-1H-1,7-phenanthrolin-2-one] — within 1.5-fold, 6.5 nM
- Nc1c(-c2ccc(F)c3[nH]ncc23)c2cc(OCC3(F)COC3)c3ncccc3c2[nH]c1=O [Compound C40, 3-Amino-4-(7-fluoro-1H-indazol-4-yl)-6-[(3-fluorooxetan-3-yl)methoxy]-1H-1,7-phenanthrolin-2-one] — within 1.5-fold, 4 nM
- Nc1c(-c2ccc(F)c3[nH]ncc23)c2cc(OC3CC4(COC4)C3)c3ncccc3c2[nH]c1=O [Compound C41, 3-Amino-4-(7-fluoro-1H-indazol-4-yl)-6-(2-oxaspiro[3,3]heptan-6-yloxy)-1H-1,7-one] — within 1.5-fold, 6.1 nM
- Nc1c(-c2ccc(F)c3[nH]ncc23)c2cc(O[C@H]3C[C@H](F)C3)c3ncccc3c2[nH]c1=O [Compound C42, 3-Amino-6-((1r,3r)-3-fluorocyclobutyl)oxy-4-(7-fluoro-1H-indazol-4-yl)-1H-1,7-phenanthrolin-2-one] — 1.9-fold lower, 2.7 nM
- Nc1c(-c2ccc(F)c3[nH]ncc23)c2cc(OCCOC(F)(F)F)c3ncccc3c2[nH]c1=O [Compound C43, 3-Amino-4-(7-fluoro-1H-indazol-4-yl)-6-[2-(trifluoromethoxy)ethoxy]-1H-1,7-phenanthrolin-2-one] — 3.7-fold higher, 19 nM
- CO[C@@H](C)COc1cc2c(-c3ccc(F)c4[nH]ncc34)c(N)c(=O)[nH]c2c2cccnc12 [Compound C45, 3-Amino-4-(7-fluoro-1H-indazol-4-yl)-6-[(2S)-2-methoxypropoxy]-1H-1,7-phenanthrolin-2-one] — within 1.5-fold, 3.6 nM
- Nc1c(-c2ccc(F)c3[nH]ncc23)c2cc(O[C@@H]3CCCOC3)c3ncccc3c2[nH]c1=O [Compound C46, 3-Amino-4-(7-fluoro-1H-indazol-4-yl)-6-[(3R)-oxan-3-yl]oxy-1H-1,7-phenanthrolin-2-one] — 1.8-fold lower, 2.9 nM
